Among the test systems are OVCAR-5 ovarian; SF-539 CNS; U251 CNS; MDA-MB-435; UACC-257 melanoma; KM12 colon; IGROV1 ovarian; HCT-116 colon; MALME-3M melanoma; SK-MEL-28 melanoma.
Common to all, as to assay: NCI anticancer screen, dose series, 48 h

This passage reports TGI and GI50 results from PubChem BioAssay (NCI).

Molecules are shown by their SMILES.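 The compound was tested at five concentrations on cells cultured in 96-well plates, with a 48-hour exposure period. The concentration for 50% growth inhibition is given as GI50. TGI marks complete inhibition of growth.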

Turning to `COc1c(-c2cc(C)c(Cl)c(=O)[nH]2)c(O)c(OC)c2occc12`, the TGI in the test with OVCAR-5 ovarian, with SF-539 CNS, with U251 CNS, in the test with MDA-MB-435, in the test with UACC-257 melanoma and in the test on KM12 colon was more than 100 µM each time. Further, the TGI in the test on IGROV1 ovarian, in the test on HCT-116 colon, with MALME-3M melanoma and with SK-MEL-28 melanoma was more than 100 µM in each case.

`COc1c2occc2c(OC)c2c(=O)c(S(=O)(=O)NC(=O)Nc3ccc(Cl)cc3)coc12`: the TGI with OVCAR-5 ovarian, in the test with SF-539 CNS, with U251 CNS, in the test with MDA-MB-435, with UACC-257 melanoma and with KM12 colon was more than 10 µM throughout. The TGI in the test on IGROV1 ovarian, in the test with HCT-116 colon, in the test with MALME-3M melanoma and in the test with SK-MEL-28 melanoma was more than 10 µM each time.

On to `COC(=O)c1c(OC(C)=O)ccc2c1c1c(OC(C)=O)c3ccccc3c(OC(C)=O)c1n2Cc1cc(OC)cc(OC)c1`, for which the TGI in the test with OVCAR-5 ovarian was more than 100 µM; in the test with SF-539 CNS, 9.27 µM; in the test with U251 CNS it was more than 100 µM; with MDA-MB-435, 78.3 µM; in the test with UACC-257 melanoma it was more than 100 µM; in the test with KM12 colon, 8.13 µM. The TGI in the test on IGROV1 ovarian is more than 100 µM; with HCT-116 colon, 78.3 µM; in the test with MALME-3M melanoma it was 70.6 µM; in the test on SK-MEL-28 melanoma, more than 100 µM.

`O=C(CCc1cccc(O)c1)NCCc1cccc(O)c1`: the TGI in the test on OVCAR-5 ovarian, with SF-539 CNS, in the test with U251 CNS, with MDA-MB-435, in the test with UACC-257 melanoma and in the test on KM12 colon was more than 100 µM each time. Also, the TGI in the test with IGROV1 ovarian, in the test on HCT-116 colon, in the test on MALME-3M melanoma and with SK-MEL-28 melanoma was more than 100 µM each time.

With `Brc1ccc2c(-c3nc(-c4c[nH]c5ccccc45)cs3)c[nH]c2c1`, the TGI in the test with OVCAR-5 ovarian was more than 100 µM; in the test on SF-539 CNS, 69.5 µM; with U251 CNS it was more than 100 µM; in the test with MDA-MB-435, more than 100 µM; in the test with UACC-257 melanoma, more than 100 µM; in the test on KM12 colon, more than 47.3 µM. Further, the TGI in the test on IGROV1 ovarian is more than 100 µM; with HCT-116 colon, more than 100 µM; in the test with MALME-3M melanoma, more than 100 µM; in the test with SK-MEL-28 melanoma, more than 93.6 µM.

Regarding `O=C1COC(c2ccccc2O)=NN1CCCN1CCCC1`, the TGI in the test on OVCAR-5 ovarian, in the test on SF-539 CNS, in the test on U251 CNS, in the test on MDA-MB-435, in the test with UACC-257 melanoma and in the test with KM12 colon was more than 100 µM each time. Also, the TGI with IGROV1 ovarian, with HCT-116 colon, in the test with MALME-3M melanoma and in the test on SK-MEL-28 melanoma was more than 100 µM in each case.

For `CC/C(Cl)=N\OC(=O)Nc1ccc(OC)cc1`, the TGI was 11.3 µM with OVCAR-5 ovarian; 9.51 µM in the test on SF-539 CNS; more than 57.2 µM with U251 CNS; 25.8 µM in the test on MDA-MB-435; 30.2 µM in the test with UACC-257 melanoma; 31.6 µM in the test with KM12 colon. Further, the TGI with IGROV1 ovarian was 17.5 µM; with HCT-116 colon it was 12 µM; in the test on MALME-3M melanoma it was 10.7 µM; with SK-MEL-28 melanoma it was 15.1 µM.

In the case of `C(=N\Nc1ncc(-c2cc3cc4c(cc3o2)OCO4)s1)/c1c[nH]c2ccccc12`, the GI50 in the test with SF-539 CNS is 0.669 µM; with MDA-MB-435 it was 1.74 µM; in the test with UACC-257 melanoma it was 2.57 µM; with KM12 colon it was 0.449 µM; with HCT-116 colon it was 2.13 µM; in the test on MALME-3M melanoma, 1.4 µM. The GI50 with SK-MEL-28 melanoma was 3.17 µM. The TGI was determined as 1.98 µM in the test with SF-539 CNS; 4.44 µM in the test on MDA-MB-435; 7.77 µM in the test with UACC-257 melanoma; 2.04 µM in the test on KM12 colon; 10.2 µM in the test on HCT-116 colon; 4.02 µM with MALME-3M melanoma. In addition, the TGI in the test with SK-MEL-28 melanoma stood at 12.2 µM.

Take `CCN1CCN(C(=O)[C@]23CC[C@@H](C)[C@H](C)[C@@H]2C2=CC[C@@H]4[C@@]5(C)C/C(=C/c6cccnc6)C(=O)C(C)(C)[C@@H]5CC[C@@]4(C)[C@]2(C)CC3)CC1`: the GI50 with OVCAR-5 ovarian was 1.54 µM; with SF-539 CNS, 1.66 µM; with MDA-MB-435 it was 1.7 µM; with UACC-257 melanoma it was 2.21 µM; in the test on KM12 colon, 1.75 µM; in the test with IGROV1 ovarian, 1.89 µM. The GI50 in the test on HCT-116 colon is 1.69 µM; with MALME-3M melanoma, 1.4 µM; with SK-MEL-28 melanoma, 1.75 µM. Moreover, the TGI in the test on OVCAR-5 ovarian worked out at 2.93 µM; with SF-539 CNS, 3.05 µM; with MDA-MB-435, 3.49 µM; with UACC-257 melanoma, 5.95 µM; in the test on KM12 colon it was 3.56 µM; in the test on IGROV1 ovarian, 3.87 µM. Also, the TGI in the test on HCT-116 colon worked out at 3.55 µM; in the test on MALME-3M melanoma, 2.75 µM; in the test with SK-MEL-28 melanoma it was 3.15 µM.

Turning to `Cc1ccccc1N=C(N)NC#N`, the TGI in the test with OVCAR-5 ovarian, with SF-539 CNS, in the test with U251 CNS, in the test with MDA-MB-435, with UACC-257 melanoma and in the test on IGROV1 ovarian was more than 100 µM in each case. In addition, the TGI in the test on HCT-116 colon, in the test with MALME-3M melanoma and in the test on SK-MEL-28 melanoma was more than 100 µM each time.

In the case of `Nc1ccc2c(c1)C1Oc3ccccc3CC1CO2` (stereo not given), the TGI in the test with OVCAR-5 ovarian, with SF-539 CNS, in the test on U251 CNS, in the test on MDA-MB-435, in the test with UACC-257 melanoma and in the test with KM12 colon was more than 100 µM each time. In addition, the TGI with IGROV1 ovarian, with HCT-116 colon and in the test with MALME-3M melanoma was more than 100 µM in each case.

On to `CC1CN=C(Nc2cccc(C(F)(F)F)c2)S1` (stereo not given), for which the TGI in the test on OVCAR-5 ovarian, with SF-539 CNS, in the test with U251 CNS, in the test with MDA-MB-435, with UACC-257 melanoma and in the test with KM12 colon was more than 100 µM each time. For the same compound, the TGI in the test with HCT-116 colon, in the test on MALME-3M melanoma and in the test on SK-MEL-28 melanoma was more than 100 µM throughout.

As to `O=c1c2ccccc2oc2c1ccc1ncccc12`, the TGI is 16.1 µM in the test with OVCAR-5 ovarian; 53.3 µM in the test on SF-539 CNS; more than 100 µM with MDA-MB-435; 70.6 µM with UACC-257 melanoma; more than 100 µM in the test with KM12 colon; 26.4 µM with IGROV1 ovarian. Also, the TGI in the test on HCT-116 colon was 45.2 µM; in the test on MALME-3M melanoma, 52.2 µM; in the test with SK-MEL-28 melanoma, more than 100 µM.

As for `O=[N+]([O-])C(/C(Cl)=C(/Cl)N1CCOCC1)=C1\NCCO1`, the TGI with OVCAR-5 ovarian, in the test with SF-539 CNS, in the test on U251 CNS, in the test with MDA-MB-435, with UACC-257 melanoma and in the test on KM12 colon was more than 100 µM throughout. The TGI in the test with HCT-116 colon, in the test with MALME-3M melanoma and with SK-MEL-28 melanoma was more than 100 µM each time.

Turning to `COc1ccc2c(c1)OCC1(O)Cc3ccccc3OC21` (stereo not given), the TGI with OVCAR-5 ovarian, in the test on SF-539 CNS, in the test on U251 CNS, in the test with MDA-MB-435, in the test with UACC-257 melanoma and in the test on KM12 colon was more than 100 µM each time. Also, the TGI with IGROV1 ovarian, in the test with HCT-116 colon and with MALME-3M melanoma was more than 100 µM each time.

As to `CC(=O)Nc1ccc2c(C(=O)O)c(C)c(=O)[nH]c2n1`, the TGI in the test with OVCAR-5 ovarian, with SF-539 CNS, with U251 CNS, with MDA-MB-435, in the test on UACC-257 melanoma and in the test on KM12 colon was more than 100 µM throughout. Moreover, the TGI in the test with IGROV1 ovarian, with HCT-116 colon and in the test on MALME-3M melanoma was more than 100 µM throughout.

Turning to `Cc1c(CNc2ccc(Cl)c(C(=O)NC(CC(=O)O)C(=O)O)c2)ccc2nc(N)nc(N)c12` (stereo not given), the GI50 was 0.446 µM with SF-539 CNS, 75.8 µM in the test with U251 CNS, 2.97 µM with UACC-257 melanoma and 50.4 µM in the test with IGROV1 ovarian. For the same compound, the TGI in the test with SF-539 CNS was more than 1000 µM; in the test on U251 CNS, more than 1000 µM; in the test on MDA-MB-435, more than 1000 µM; with UACC-257 melanoma, more than 1000 µM; in the test with KM12 colon it was more than 1000 µM; in the test on IGROV1 ovarian it was 232 µM. Further, the TGI with HCT-116 colon was more than 1000 µM; in the test with MALME-3M melanoma, 692 µM.

Turning to `Cc1cc2c(cc1-c1cc3c(cc1C)C(C(C)C)=C(O)C(=O)/C3=C\Nc1nc(-c3ccccc3)cs1)/C(=C/Nc1nc(-c3ccccc3)cs1)C(=O)C(O)=C2C(C)C`, the TGI is 43.9 µM in the test with SF-539 CNS; 27.5 µM in the test with U251 CNS; 30.6 µM in the test on MDA-MB-435; 47 µM in the test on UACC-257 melanoma; more than 100 µM in the test on KM12 colon; 53.4 µM in the test on IGROV1 ovarian. The TGI in the test on HCT-116 colon is more than 100 µM; in the test on MALME-3M melanoma, more than 100 µM; with SK-MEL-28 melanoma, 30.4 µM.

Take `COc1ccc2oc(S(=O)(=O)N3CC(CCl)c4ccc([N+](=O)[O-])cc43)cc2c1` (stereo not given): the TGI in the test with OVCAR-5 ovarian is more than 100 µM; in the test with SF-539 CNS, 0.308 µM; in the test on U251 CNS, 0.348 µM; in the test with MDA-MB-435, 0.169 µM; with UACC-257 melanoma, more than 32.1 µM; in the test on KM12 colon, 0.418 µM. For the same compound, the TGI in the test with HCT-116 colon was 4.22 µM; in the test on MALME-3M melanoma it was 32.8 µM; with SK-MEL-28 melanoma, more than 61.6 µM.
